Experimental data published in BindingDB's records for doi:10.1016/j.bmc.2013.06.038 (Jagiellonian University Medical College, 2013).

Tests used:
[1] = target: T1, Sodium- and chloride-dependent GABA transporter 3 (Mus musculus, UniProt P31650); test: Inhibition of mouse GAT3-mediated [3H]GABA uptake stably transfected in HEK293 cells
T1 sequence (P31650 whole entry): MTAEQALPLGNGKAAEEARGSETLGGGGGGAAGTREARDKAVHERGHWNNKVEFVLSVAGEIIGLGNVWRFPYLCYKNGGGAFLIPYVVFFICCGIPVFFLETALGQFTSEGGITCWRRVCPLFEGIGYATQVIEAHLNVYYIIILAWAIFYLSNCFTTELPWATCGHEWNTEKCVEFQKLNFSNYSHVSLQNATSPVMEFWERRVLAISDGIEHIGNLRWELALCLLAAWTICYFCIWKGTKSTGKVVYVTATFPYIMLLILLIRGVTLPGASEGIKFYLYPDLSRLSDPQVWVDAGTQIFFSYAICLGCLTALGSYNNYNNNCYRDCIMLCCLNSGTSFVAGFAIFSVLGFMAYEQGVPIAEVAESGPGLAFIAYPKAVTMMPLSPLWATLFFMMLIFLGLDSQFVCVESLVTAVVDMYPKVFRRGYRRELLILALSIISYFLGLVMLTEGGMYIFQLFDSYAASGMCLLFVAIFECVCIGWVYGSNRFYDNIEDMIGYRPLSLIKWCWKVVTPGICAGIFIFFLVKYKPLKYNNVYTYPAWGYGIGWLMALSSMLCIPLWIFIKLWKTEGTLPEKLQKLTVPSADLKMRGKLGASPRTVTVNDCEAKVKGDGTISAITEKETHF

[2] = target: T2, Sodium- and chloride-dependent GABA transporter 2 (Mus musculus, UniProt P31649); test: Inhibition of mouse GAT2-mediated [3H]GABA uptake stably transfected in HEK293 cells
T2 sequence (P31649 whole entry): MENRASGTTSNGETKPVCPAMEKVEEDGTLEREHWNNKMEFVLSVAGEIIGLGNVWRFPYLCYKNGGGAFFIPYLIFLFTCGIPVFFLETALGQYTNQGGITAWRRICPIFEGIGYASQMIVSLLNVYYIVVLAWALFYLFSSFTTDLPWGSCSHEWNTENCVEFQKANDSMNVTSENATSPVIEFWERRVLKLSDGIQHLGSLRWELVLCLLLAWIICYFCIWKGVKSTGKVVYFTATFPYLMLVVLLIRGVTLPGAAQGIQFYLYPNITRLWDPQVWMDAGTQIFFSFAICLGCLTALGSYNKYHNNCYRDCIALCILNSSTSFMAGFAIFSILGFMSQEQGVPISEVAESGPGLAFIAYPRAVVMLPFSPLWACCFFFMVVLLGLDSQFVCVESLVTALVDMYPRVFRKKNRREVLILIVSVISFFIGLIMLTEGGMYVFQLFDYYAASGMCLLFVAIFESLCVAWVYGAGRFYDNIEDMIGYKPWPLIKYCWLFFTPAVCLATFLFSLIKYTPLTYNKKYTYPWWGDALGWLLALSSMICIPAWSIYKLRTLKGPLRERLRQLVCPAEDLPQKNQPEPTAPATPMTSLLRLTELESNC

SMILES | IC50 [1] [µM] | IC50 [2] [µM]
CN(CCC=C(c1ccccc1)c1ccccc1)C(CCO)C(=O)NCc1ccc(F)cc1 (centres undefined) | 11.2 | –
CN(CCCC(c1ccccc1)c1ccccc1)C(CCO)C(=O)NCc1ccccc1 (centres undefined) | 32.4 | 39.8
CN(CCC=C(c1ccccc1)c1ccccc1)C(CCO)C(=O)NCc1ccccc1Cl (centres undefined) | – | 12.6
C[C@H](O)C[C@H](C(=O)NCc1ccccc1Cl)N1CCC(=C(c2ccccc2)c2ccccc2)CC1 | 28.8 | –
O=C(NCc1ccccc1Cl)C(CCO)N1CCC(C(c2ccccc2)c2ccccc2)CC1 (centres undefined) | 36.3 | 49
CN(CCCC(c1ccccc1)c1ccccc1)C(CCO)C(=O)NCc1ccc(F)cc1 (centres undefined) | 38.9 | 41.7
O=C(NCc1ccc(F)cc1)C(CCO)NCCCC(c1ccccc1)c1ccccc1 (centres undefined) | 22.9 | 26.9
Cc1ccc(CNC(=O)C(CCO)N(C)CCCC(c2ccccc2)c2ccccc2)cc1 (centres undefined) | – | 28.8
C[C@@H](O)C[C@H](C(=O)NCc1ccc(F)cc1)N1CCC(=C(c2ccccc2)c2ccccc2)CC1 | 26.9 | 64.6
C[C@H](O)C[C@H](C(=O)NCc1ccc(Cl)cc1)N1CCC(=C(c2ccccc2)c2ccccc2)CC1 | 42.7 | –
O=C(NCc1ccccc1Cl)C(CCO)N1CCC(=C(c2ccccc2)c2ccccc2)CC1 (centres undefined) | 56.2 | 75.9
C[C@H](O)C[C@H](C(=O)NCc1ccccc1)N1CCC(=C(c2ccccc2)c2ccccc2)CC1 | 30.9 | 61.7
O=C(NCc1ccc(F)cc1)C(CCO)N1CCC(C(c2ccccc2)c2ccccc2)CC1 (centres undefined) | 34.7 | 55
O=C(NCc1ccc(Cl)cc1)C(CCO)N1CCC(=C(c2ccccc2)c2ccccc2)CC1 (centres undefined) | – | 19.5
Cc1ccc(CNC(=O)C(CCO)N2CCC(C(c3ccccc3)c3ccccc3)CC2)cc1 (centres undefined) | 42.7 | 38
O=C(NCc1ccc(F)cc1)C(CCO)N1CCC(=C(c2ccccc2)c2ccccc2)CC1 (centres undefined) | 28.2 | 16.6
CN(CCC=C(c1ccccc1)c1ccccc1)C(CCO)C(=O)NCc1ccccc1 (centres undefined) | 13.5 | 26.9

SMILES | IC50 [1] [µM] | IC50 [2] [µM]
O=C(NCc1ccccc1)C(CCO)N1CCC(=C(c2ccccc2)c2ccccc2)CC1 (centres undefined) | 37.2 | 46.8
O=C(NCc1ccc(Cl)cc1)C(CCO)NCCCC(c1ccccc1)c1ccccc1 (centres undefined) | 14.8 | 11
O=C(NCc1ccccc1Cl)C(CCO)NCCCC(c1ccccc1)c1ccccc1 (centres undefined) | 18.2 | –
Cc1ccc(CNC(=O)[C@@H](C[C@@H](C)O)N2CCC(=C(c3ccccc3)c3ccccc3)CC2)cc1 | 57.5 | 24
C[C@@H](O)C[C@H](C(=O)NCc1ccccc1)N1CCC(=C(c2ccccc2)c2ccccc2)CC1 | 21.9 | 49
CN(CCC=C(c1ccccc1)c1ccccc1)C(CCO)C(=O)NCc1ccc(Cl)cc1 (centres undefined) | 9.55 | 13.2
O=C(NCc1ccccc1)C(CCO)N1CCC(C(c2ccccc2)c2ccccc2)CC1 (centres undefined) | 41.7 | –
O=C(NCc1ccccc1)C(CCO)NCCCC(c1ccccc1)c1ccccc1 (centres undefined) | 35.5 | 28.8
Cc1ccc(CNC(=O)C(CCO)N(C)CCC=C(c2ccccc2)c2ccccc2)cc1 (centres undefined) | 11.7 | 14.5
CN(CCCC(c1ccccc1)c1ccccc1)C(CCO)C(=O)NCc1ccccc1Cl (centres undefined) | 16.2 | 28.8
Cc1ccc(CNC(=O)C(CCO)N2CCC(=C(c3ccccc3)c3ccccc3)CC2)cc1 (centres undefined) | – | 30.9
Cc1ccc(CNC(=O)C(CCO)NCCCC(c2ccccc2)c2ccccc2)cc1 (centres undefined) | – | 17
C[C@H](O)C[C@H](C(=O)NCc1ccc(F)cc1)N1CCC(=C(c2ccccc2)c2ccccc2)CC1 | 55 | 100
CN(CCCC(c1ccccc1)c1ccccc1)C(CCO)C(=O)NCc1ccc(Cl)cc1 (centres undefined) | 13.2 | –
Cc1ccc(CNC(=O)[C@@H](C[C@H](C)O)N2CCC(=C(c3ccccc3)c3ccccc3)CC2)cc1 | – | 50.1
O=C(NCc1ccc(Cl)cc1)C(CCO)N1CCC(C(c2ccccc2)c2ccccc2)CC1 (centres undefined) | 32.4 | 60.3
